Patent US7138361B2, “Herbicidal heterocycles” (E. I. du Pont de Nemours and Company, priority 2000, dated 2006)

Columns and labels:
Assay type in all cases: in vivo
[1] = test system: Sunflower; experiment: Test C preemergence; conditions: Rate 250 g/ha, scale 0 to 100, 0 no effect, 100 complete control
[2] = test system: barnyardgrass (Echinochloa crus-galli); experiment: Test B postemergence; conditions: 13 to 15 days
In short: (§1)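 Preemergence: seeds planted and treated with test chemicals in non-phytotoxic solvent with surfactant; postemergence on plants 2–18 cm (1- to 4-leaf stage). Kept in greenhouse 13–15 days, then visually rated against controls on a 0 (no effect) to 100 (complete control) scale.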

[3] = test system: blackgrass (Alopecurus myosuroides); experiment: Test B postemergence; conditions: 13 to 15 days
In short: as §1

[4] = test system: pigweed (Amaranthus retroflexus); experiment: Test B postemergence; conditions: 13 to 15 days
In short: as §1

[5] = test system: velvetleaf (Abutilon theophrasti); experiment: Test B postemergence; conditions: 13 to 15 days
In short: as §1

[6] = test system: Surinam grass (Brachiaria decumbens); experiment: Test B postemergence; conditions: 13 to 15 days
In short: as §1

[7] = test system: morning glory (Ipomoea hederacea); experiment: Test B postemergence; conditions: 13 to 15 days
In short: as §1

[8] = test system: wheat (Triticum aestivum); experiment: Test B postemergence; conditions: 13 to 15 days
In short: as §1

[9] = test system: corn (Zea mays); experiment: Test B postemergence; conditions: 13 to 15 days
In short: as §1

[10] = test system: giant foxtail (Setaria faberii); experiment: Test B postemergence; conditions: 13 to 15 days
In short: as §1

[11] = test system: barnyardgrass (Echinochloa crus-galli); experiment: Test B preemergence
In short: as §1

[12] = test system: rice (Oryza saliva); experiment: Test B preemergence
In short: as §1

[13] = test system: pigweed (Amaranthus retroflexus); experiment: Test B preemergence
In short: as §1

[14] = test system: crabgrass (Digitaria sanguinalis); experiment: Test B preemergence
In short: as §1

[15] = test system: velvetleaf (Abutilon theophrasti); experiment: Test B preemergence
In short: as §1

[16] = test system: Surinam grass (Brachiaria decumbens); experiment: Test B preemergence
In short: as §1

[17] = test system: morning glory (Ipomoea hederacea); experiment: Test B preemergence
In short: as §1

[18] = test system: corn (Zea mays); experiment: Test B preemergence
In short: as §1

[19] = test system: lambsquarters (Chenopodium album); experiment: Test B preemergence
In short: as §1

[20] = test system: giant foxtail (Setaria faberii); experiment: Test B preemergence
In short: as §1

[21] = test system: cocklebur (Xanthium strumarium); experiment: Test B preemergence
In short: as §1

[22] = test system: smallflower flatsedge (Cyperus difformis); experiment: Test C flooded paddy test; conditions: for Flatsedge plant response rating: Flooded Paddy, scale 0 to 100, 0 no effect, 100 complete control; for Plant response rating, Flatsedge: flooded paddy test, scale 0 to 100 (0 no effect, 100 complete control)
In short: (§2)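 Each species was cultivated to 2 leaves in flooded paddy pots, then treated. After a greenhouse period of 12–14 days, the plants were scored visually relative to controls from 0 (no effect) to 100 (complete control).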

[23] = test system: barnyardgrass (Echinochloa crus-galli); experiment: Test C flooded paddy test; conditions: for Barnyardgrass plant response rating: Flooded Paddy, scale 0 to 100, 0 no effect, 100 complete control; for Plant response rating, Barnyardgrass: flooded paddy test, scale 0 to 100 (0 no effect, 100 complete control)
In short: as §2

[24] = test system: rice (Oryza saliva); experiment: Test C flooded paddy test; conditions: for Rice plant response rating: Flooded Paddy, scale 0 to 100, 0 no effect, 100 complete control; for Plant response rating, Rice: flooded paddy test, scale 0 to 100 (0 no effect, 100 complete control)
In short: as §2

[25] = test system: duck salad (Heteranthera limosa); experiment: Test C flooded paddy test; conditions: for Ducksalad plant response rating: Flooded Paddy, scale 0 to 100, 0 no effect, 100 complete control; for Plant response rating, Ducksalad: flooded paddy test, scale 0 to 100 (0 no effect, 100 complete control)
In short: as §2

[26] = test system: Nightshade; experiment: Test C preemergence; conditions: Rate 500 g/ha, visual evaluation after 12 to 14 days
[27] = Rate 125 g/ha, scale 0 (no effect) to 100 (complete control)
[28] = Rate 500 g/ha, scale 0 to 100, 0 is no effect, 100 is complete control
[29] = Preemergence, Rate 500 g/ha, scale 0 to 100, 0 no effect, 100 complete control
[30] = preemergence, Rate 125 g/ha, scale of 0 to 100 where 0 is no effect and 100 is complete control, 13 to 15 days

COC(=O)c1cccc(N2CCC(n3ccc(C(C)(C)C)n3)C2=O)c1 (stereo not shown) [Compound 73]
Plant response rating, Sunflower [1]: 70
Plant response rating, Barnyardgrass [2, 27]: 30
Plant response rating, Barnyardgrass [2, 28]: 90
Plant response rating, Blackgrass [3, 27]: 0
Plant response rating, Blackgrass [3, 28]: 0
Plant response rating, Pigweed [4, 27]: 20
Plant response rating, Pigweed [4, 28]: 90
Plant response rating, Velvetleaf [5, 27]: 50
Plant response rating, Velvetleaf [5, 28]: 70
Plant response rating, Surinam grass [6, 27]: 0
Plant response rating, Surinam grass [6, 28]: 0
Plant response rating, Morningglory [7, 27]: 20
Plant response rating, Morningglory [7, 28]: 20
Plant response rating, Wheat [8, 27]: 0
Plant response rating, Wheat [8, 28]: 0
Plant response rating, Corn [9, 27]: 30
Plant response rating, Corn [9, 28]: 40
Plant response rating, Foxtail, Giant [10, 27]: 20
Plant response rating, Foxtail, Giant [10, 28]: 50
Plant response rating, Barnyardgrass [11, 29]: 100
Plant response rating, Barnyardgrass [11, 30]: 100
Plant response rating, Rice [12, 29]: 40
Plant response rating, Rice [12, 30]: 30
Plant response rating, Pigweed [13, 29]: 100
Plant response rating, Pigweed [13, 30]: 100
Plant response rating, Crabgrass [14, 29]: 100
Plant response rating, Crabgrass [14, 30]: 100
Plant response rating, Velvetleaf [15, 29]: 100
Plant response rating, Velvetleaf [15, 30]: 90
Plant response rating, Surinam grass [16, 29]: 90
Plant response rating, Surinam grass [16, 30]: 50
Plant response rating, Morningglory [17, 29]: 100
Plant response rating, Morningglory [17, 30]: 0
Plant response rating, Corn [18, 29]: 30
Plant response rating, Corn [18, 30]: 0
Plant response rating, Lambsquarters [19, 29]: 100
Plant response rating, Lambsquarters [19, 30]: 100
Plant response rating, Foxtail, Giant [20, 29]: 100
Plant response rating, Foxtail, Giant [20, 30]: 100
Plant response rating, Cocklebur [21, 29]: 90
Plant response rating, Cocklebur [21, 30]: 0
Flatsedge plant response rating ([22]; Rate 250 g/ha): 100
Flatsedge plant response rating ([22]; Rate 500 g/ha): 100
Plant response rating, Flatsedge ([22]; Rate 62 g/ha): 90
Plant response rating, Flatsedge ([22]; Rate 125 g/ha): 100
Barnyardgrass plant response rating ([23]; Rate 250 g/ha): 100
Barnyardgrass plant response rating ([23]; Rate 500 g/ha): 100
Plant response rating, Barnyardgrass ([23]; Rate 62 g/ha): 30
Plant response rating, Barnyardgrass ([23]; Rate 125 g/ha): 70
Rice plant response rating ([24]; Rate 250 g/ha): 50
Rice plant response rating ([24]; Rate 500 g/ha): 60
Plant response rating, Rice ([24]; Rate 62 g/ha): 0
Plant response rating, Rice ([24]; Rate 125 g/ha): 20
Ducksalad plant response rating ([25]; Rate 250 g/ha): 100
Ducksalad plant response rating ([25]; Rate 500 g/ha): 100
Plant response rating, Ducksalad ([25]; Rate 62 g/ha): 70
Plant response rating, Ducksalad ([25]; Rate 125 g/ha): 90

CCC(CC)c1ccn(C2CCN(c3cccc(OC(C)C)c3)C2=O)n1 (stereo not shown) [Compound 84]
Plant response rating, Sunflower [1]: 30
Plant response rating, Barnyardgrass [2, 27]: 0
Plant response rating, Barnyardgrass [2, 28]: 80
Plant response rating, Blackgrass [3, 27]: 0
Plant response rating, Blackgrass [3, 28]: 0
Plant response rating, Pigweed [4, 27]: 60
Plant response rating, Pigweed [4, 28]: 70
Plant response rating, Velvetleaf [5, 27]: 0
Plant response rating, Velvetleaf [5, 28]: 10
Plant response rating, Surinam grass [6, 27]: 0
Plant response rating, Surinam grass [6, 28]: 10
Plant response rating, Morningglory [7, 27]: 10
Plant response rating, Morningglory [7, 28]: 30
Plant response rating, Wheat [8, 27]: 0
Plant response rating, Wheat [8, 28]: 0
Plant response rating, Corn [9, 27]: 0
Plant response rating, Corn [9, 28]: 0
Plant response rating, Foxtail, Giant [10, 27]: 0
Plant response rating, Foxtail, Giant [10, 28]: 10
Plant response rating, Barnyardgrass [11, 29]: 100
Plant response rating, Barnyardgrass [11, 30]: 100
Plant response rating, Rice [12, 29]: 100
Plant response rating, Rice [12, 30]: 0
Plant response rating, Pigweed [13, 29]: 100
Plant response rating, Pigweed [13, 30]: 100
Plant response rating, Crabgrass [14, 29]: 100
Plant response rating, Crabgrass [14, 30]: 100
Plant response rating, Velvetleaf [15, 29]: 0
Plant response rating, Velvetleaf [15, 30]: 0
Plant response rating, Surinam grass [16, 29]: 100
Plant response rating, Surinam grass [16, 30]: 80
Plant response rating, Morningglory [17, 29]: 0
Plant response rating, Morningglory [17, 30]: 0
Plant response rating, Corn [18, 29]: 20
Plant response rating, Corn [18, 30]: 0
Plant response rating, Foxtail, Giant [20, 29]: 100
Plant response rating, Foxtail, Giant [20, 30]: 100
Plant response rating, Cocklebur [21, 29]: 0
Plant response rating, Cocklebur [21, 30]: 0
Plant response rating (0 to 100), Nightshade [26]: 100
Flatsedge plant response rating ([22]; Rate 250 g/ha): 100
Flatsedge plant response rating ([22]; Rate 500 g/ha): 100
Plant response rating, Flatsedge ([22]; Rate 62 g/ha): 90
Plant response rating, Flatsedge ([22]; Rate 125 g/ha): 90
Barnyardgrass plant response rating ([23]; Rate 250 g/ha): 100
Barnyardgrass plant response rating ([23]; Rate 500 g/ha): 100
Plant response rating, Barnyardgrass ([23]; Rate 62 g/ha): 80
Rice plant response rating ([24]; Rate 250 g/ha): 30
Rice plant response rating ([24]; Rate 500 g/ha): 90
Plant response rating, Rice ([24]; Rate 62 g/ha): 0
Plant response rating, Rice ([24]; Rate 125 g/ha): 0
Ducksalad plant response rating ([25]; Rate 250 g/ha): 100
Ducksalad plant response rating ([25]; Rate 500 g/ha): 100
Plant response rating, Ducksalad ([25]; Rate 62 g/ha): 90
Plant response rating, Ducksalad ([25]; Rate 125 g/ha): 90

CCC(CC)c1ccn(C2CCN(c3ccc(C)c(OC)c3)C2=O)n1 (stereo not shown) [Compound 81]
Plant response rating, Sunflower [1]: 0
Plant response rating, Barnyardgrass [2, 27]: 0
Plant response rating, Barnyardgrass [2, 28]: 0
Plant response rating, Blackgrass [3, 27]: 0
Plant response rating, Blackgrass [3, 28]: 0
Plant response rating, Pigweed [4, 27]: 70
Plant response rating, Pigweed [4, 28]: 90
Plant response rating, Velvetleaf [5, 27]: 80
Plant response rating, Velvetleaf [5, 28]: 90
Plant response rating, Surinam grass [6, 27]: 0
Plant response rating, Surinam grass [6, 28]: 10
Plant response rating, Morningglory [7, 27]: 80
Plant response rating, Morningglory [7, 28]: 100
Plant response rating, Wheat [8, 27]: 0
Plant response rating, Wheat [8, 28]: 0
Plant response rating, Corn [9, 27]: 10
Plant response rating, Corn [9, 28]: 10
Plant response rating, Foxtail, Giant [10, 27]: 0
Plant response rating, Foxtail, Giant [10, 28]: 0
Plant response rating, Barnyardgrass [11, 29]: 100
Plant response rating, Barnyardgrass [11, 30]: 100
Plant response rating, Rice [12, 29]: 90
Plant response rating, Rice [12, 30]: 50
Plant response rating, Pigweed [13, 29]: 100
Plant response rating, Pigweed [13, 30]: 100
Plant response rating, Crabgrass [14, 29]: 100
Plant response rating, Crabgrass [14, 30]: 100
Plant response rating, Velvetleaf [15, 29]: 80
Plant response rating, Velvetleaf [15, 30]: 70
Plant response rating, Surinam grass [16, 29]: 100
Plant response rating, Surinam grass [16, 30]: 90
Plant response rating, Morningglory [17, 29]: 100
Plant response rating, Morningglory [17, 30]: 30
Plant response rating, Corn [18, 29]: 30
Plant response rating, Corn [18, 30]: 0
Plant response rating, Lambsquarters [19, 29]: 100
Plant response rating, Lambsquarters [19, 30]: 100
Plant response rating, Foxtail, Giant [20, 29]: 100
Plant response rating, Foxtail, Giant [20, 30]: 100
Plant response rating, Cocklebur [21, 29]: 90
Plant response rating, Cocklebur [21, 30]: 0
Flatsedge plant response rating ([22]; Rate 250 g/ha): 90
Flatsedge plant response rating ([22]; Rate 500 g/ha): 90
Plant response rating, Flatsedge ([22]; Rate 62 g/ha): 90
Plant response rating, Flatsedge ([22]; Rate 125 g/ha): 90
Barnyardgrass plant response rating ([23]; Rate 250 g/ha): 90
Barnyardgrass plant response rating ([23]; Rate 500 g/ha): 90
Plant response rating, Barnyardgrass ([23]; Rate 62 g/ha): 20
Plant response rating, Barnyardgrass ([23]; Rate 125 g/ha): 80
Rice plant response rating ([24]; Rate 250 g/ha): 80
Rice plant response rating ([24]; Rate 500 g/ha): 80
Plant response rating, Rice ([24]; Rate 62 g/ha): 0
Plant response rating, Rice ([24]; Rate 125 g/ha): 0
Ducksalad plant response rating ([25]; Rate 250 g/ha): 90
Ducksalad plant response rating ([25]; Rate 500 g/ha): 100
Plant response rating, Ducksalad ([25]; Rate 62 g/ha): 80
Plant response rating, Ducksalad ([25]; Rate 125 g/ha): 90
